Test results as given in patent US20250090510A1, “eIF4G1-eIF1 INHIBITORS AND USE THEREOF” (YEDA RESEARCH AND DEVELOPMENT CO. LTD., priority 2022, published 2025).
Where two headings read alike, the source gives them in different places.

Columns and labels:
eIF1-eIF4G1 complex = biological target: T1, eIF1-eIF4G1 complex (Homo sapiens, UniProt Q04637); assay: Co-immunoprecipitation of endogenous eIF4G1 with HA-eIF1; type: cell-based; conditions: HEK293T; i14G1-10 20 μM, i14G1-12 10 μM; 4 h
T1 construct: co-immunoprecipitation of endogenous eIF4G1 in HEK293T cells expressing HA-eIF1 or HA-eIF4E was performed; endogenous in cells; host or cells: HEK293T (eIF4G1 endogenous; HA-eIF1 transfected)
T1 sequence (Q04637 whole entry, one chain of several): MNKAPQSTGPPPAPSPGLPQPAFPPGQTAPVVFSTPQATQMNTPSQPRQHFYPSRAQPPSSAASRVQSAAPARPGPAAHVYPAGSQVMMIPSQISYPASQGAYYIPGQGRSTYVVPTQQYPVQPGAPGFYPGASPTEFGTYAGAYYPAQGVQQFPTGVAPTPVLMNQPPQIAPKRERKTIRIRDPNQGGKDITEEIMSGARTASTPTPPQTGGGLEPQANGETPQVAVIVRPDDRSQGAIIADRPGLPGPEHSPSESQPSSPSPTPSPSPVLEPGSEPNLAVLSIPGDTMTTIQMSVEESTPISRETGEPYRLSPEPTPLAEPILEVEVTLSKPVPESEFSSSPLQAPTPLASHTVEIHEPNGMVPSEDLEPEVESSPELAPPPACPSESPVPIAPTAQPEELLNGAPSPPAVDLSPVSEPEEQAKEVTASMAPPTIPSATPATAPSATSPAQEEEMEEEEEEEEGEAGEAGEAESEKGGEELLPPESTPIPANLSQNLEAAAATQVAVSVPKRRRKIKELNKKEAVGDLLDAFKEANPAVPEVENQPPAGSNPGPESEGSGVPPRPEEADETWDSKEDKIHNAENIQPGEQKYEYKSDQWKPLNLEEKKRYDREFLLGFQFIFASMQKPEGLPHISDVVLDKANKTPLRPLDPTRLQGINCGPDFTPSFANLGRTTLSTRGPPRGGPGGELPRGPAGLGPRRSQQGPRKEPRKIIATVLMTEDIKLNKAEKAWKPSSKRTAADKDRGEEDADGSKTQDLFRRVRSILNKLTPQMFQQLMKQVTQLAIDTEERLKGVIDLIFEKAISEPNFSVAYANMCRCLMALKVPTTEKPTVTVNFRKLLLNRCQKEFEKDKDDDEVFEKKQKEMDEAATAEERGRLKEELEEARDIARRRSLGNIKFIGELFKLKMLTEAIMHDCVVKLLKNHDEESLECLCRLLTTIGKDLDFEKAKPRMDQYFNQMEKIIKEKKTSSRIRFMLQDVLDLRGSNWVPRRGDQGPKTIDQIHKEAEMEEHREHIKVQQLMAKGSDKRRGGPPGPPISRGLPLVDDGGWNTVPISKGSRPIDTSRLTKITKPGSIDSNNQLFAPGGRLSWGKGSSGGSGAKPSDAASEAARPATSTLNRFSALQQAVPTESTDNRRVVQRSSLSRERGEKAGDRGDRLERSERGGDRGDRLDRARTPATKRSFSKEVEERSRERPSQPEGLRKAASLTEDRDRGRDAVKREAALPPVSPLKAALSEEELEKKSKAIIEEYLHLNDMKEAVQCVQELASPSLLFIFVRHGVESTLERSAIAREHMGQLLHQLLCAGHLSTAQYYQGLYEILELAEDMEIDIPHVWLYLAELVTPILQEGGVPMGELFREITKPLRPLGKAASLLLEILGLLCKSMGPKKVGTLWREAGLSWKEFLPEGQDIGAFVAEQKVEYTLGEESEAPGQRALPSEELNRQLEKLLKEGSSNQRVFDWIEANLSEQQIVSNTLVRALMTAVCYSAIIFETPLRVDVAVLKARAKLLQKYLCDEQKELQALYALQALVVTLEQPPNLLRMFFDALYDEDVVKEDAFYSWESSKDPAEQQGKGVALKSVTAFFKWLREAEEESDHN
Protocol: FIGS. 2A-C: The effect of i14G1-10 and i14G1-12 on eIF1-eIF4G1 and eIF4E-eIF4G1 complexes. (2A-B) HA-eIF1 and HA-eIF4E were each transfected into HEK293T cells and 48 h after transfection cells were treated with DMSO or i14G1-10 (2A) or i14G1-12 (2B) for 4 h, followed by immunoprecipitation of HA-eIF1 or HA-eIF4E using anti-HA-agarose beads. Western blot was run to check co-immunoprecipitation of endogenous eIF4G1 with HA-eIF1 or HA-eIF4E. The graphs represent the co-immunoprecipitation of eIF4G1 with HA-eIF1 (right) or HA-eIF4E (left). Co—IP data shown as mean±SEM of 4-7 independent experiments. The asterisks denote statistically significant difference compared to DMSO, according to Student's t-tests (one-tailed, paired). *p<0.05. (2C) HEK293T cells were treated with DMSO, i14G1-10, or i14G1-12 for 4 h, followed by cell lysis. Respective cell lysates were incubated with cap analog (γ-Aminohexyl-m7GTP) beads for 2 h to precipitate bound eIF4E. Western blot was performed to check co-precipitation of eIF4G1 along with eIF4E on the cap-analog beads. The graph represents the binding fraction of eIF4G1 and eIF4E to the cap-analog beads (mean±SEM) with DMSO (black), i14G1-10 (blue), and i14G1-12 (red), n=6. The asterisks denote statistically significant difference compared to DMSO, according to Student's t-tests (one-tailed, paired). *p<0.05; **p<0.01.
Co-immunoprecipitation. HEK293T cells were transfected with 5 μg of HA-eIF1 or HA-eIF4E plasmids along with 10 ng GFP plasmid to check for transfection efficiency using Jetprime reagent as per manufacturer's protocol. After 48 h, HA-eIF1 and HA-eIF4E expressing HEK293T cells were incubated with DMSO, i14G1-10 (20 μM), and […] (10 μM). 4 h later, cells were lysed using IP buffer (20 mM Tris pH8, 125 mM NaCl, 10% glycerol, 50 mM NaF, 1 mM […], 0.5% NP-40, and 0.2 mM EDTA) supplemented with fresh protease inhibitor cocktail (1:100) and PMSF 200 μM (1:100). Protein extract was taken for immunoprecipitation using either monoclonal anti-HA-agarose antibody (Sigma) or control IgG antibody in IP buffer, at 4° C. for 2 hours. […]

[1] = tested on: HEK293T cells with eIF4G1 knockdown; assay: Puromycin labeling after control or eIF4G1 siRNA; type: cell-based, human; conditions: for IC50: Homo sapiens, HEK-293T, 48 h, 3 h treatment, read-out: IC-50, puromycin labeling
Protocol: FIGS. 3A-F: i14G1-10 and i14G1-12 inhibit mRNA translation and sensitize cell survival of eIF4G1 and eIF1 depleted cells. (3A) In-vitro translation using rabbit reticulocyte lysate which was pre-incubated with different concentrations of i14G1-10 or i14G1-12 for 10 minutes followed by the addition of capped firefly luciferase mRNA. After 90 minutes at 30° C., the luminescence signal was measured and the IC50 was calculated. The data represents mean±SEM of 6 independent repeats. (3B) HEK293T cells were treated with DMSO (vehicle control), and sub-cytotoxic concentrations of i14G1-10 (20 μM) and i14G1-12 (10 μM) for 3h. Cell lysates were then subjected to sucrose gradient sedimentation to obtain polysome profiles. (3C) HEK293T cells were treated with the indicated concentrations of i14G1-10 and i14G-12 for 3 h, followed by the addition of puromycin (10 μg/ml) for 5 minutes, after which cells were lysed and analyzed by western blot using an anti-puromycin antibody and anti-GAPDH antibody that serves as a loading control. The graph represents the mean±SEM chemiluminescence signal intensity of puromycin labeling normalized to GAPDH of 3 independent experiments. The calculated IC-50 is shown. (3D) HEK293T cells were transfected with either control or eIF4G1 siRNA in the absence or presence of eIF4G1 expression plasmid. As the eIF4G1 siRNA pool is directed against the 3′UTR, which is absent from the eIF4G1 expression plasmid, the exogenous eIF4G1 is resistant to the siRNA. 48 h after transfection, cells were treated with the indicated concentrations of i14G1-10 and i14G-12 for 3 h, followed by a 5 minutes puromycin pulse as described in 3C. The graph represents the mean±SEM chemiluminescence signal intensity of puromycin labeling normalized to GAPDH of 3 independent experiments. The calculated IC-50 is shown. (3E) The graphs represent cell viability of the indicated cell lines in the presence of increasing concentrations of i14G1-10 and i14G1, analyzed by Luminescent Cell Viability Assay. […]

SMILES	reduction in eIF4G1 binding to HA-eIF1 (eIF1-eIF4G1 complex) [%]	IC50 ([1]; control siRNA) [µM]	IC50 ([1]; eIF4G1 siRNA knockdown) [µM]	inhibition of translation upon depletion of eIF4G1 ([1]; eIF4G1 siRNA vs control siRNA)
Cn1ccnc1S/C(=C/C=C(C#N)C#N)c1ccc(Cl)cc1 [i14G1-12]	25	5.65	80	–
O=C(/C=C/Sc1ccc(C(F)(F)F)cn1)c1ccccc1 [i14G1-10]	50	–	–	enhanced
